Assay [1] has as its system Rattus norvegicus. The assay is described as follows: Compound was tested in vivo for DOPA accumulation in corpus striatum against reserpine-pretreated rats;I= inactive at the highest dose tested (3.1). The format is functional, organism-based.
For assay [2], the target named is T1, 5-hydroxytryptamine receptor 1A (Rattus norvegicus, UniProt P19327).
T1 sequence (P19327 whole entry): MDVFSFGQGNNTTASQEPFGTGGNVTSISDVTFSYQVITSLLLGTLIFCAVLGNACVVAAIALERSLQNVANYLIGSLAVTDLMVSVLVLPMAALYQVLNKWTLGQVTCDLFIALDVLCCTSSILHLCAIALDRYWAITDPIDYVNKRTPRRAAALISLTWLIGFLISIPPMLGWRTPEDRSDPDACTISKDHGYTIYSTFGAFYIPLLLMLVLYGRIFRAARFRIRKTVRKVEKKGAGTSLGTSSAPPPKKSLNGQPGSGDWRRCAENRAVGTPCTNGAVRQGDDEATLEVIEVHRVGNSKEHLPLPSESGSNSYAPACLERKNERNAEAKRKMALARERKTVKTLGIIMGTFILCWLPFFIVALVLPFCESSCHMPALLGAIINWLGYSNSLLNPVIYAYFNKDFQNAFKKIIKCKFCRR
The assay is described as follows: Binding affinity against 5-hydroxytryptamine 1A receptor from CHO-K1 cells, using [3H]8-OH-DPAT as the radioligand. In kind it is cell-based.

The target in assay [3] is T2, D(3) dopamine receptor (Rattus norvegicus, UniProt P19020). The assay is described as follows: Binding affinity against Dopamine receptor D3 expressed in CHO-K1 cells, using [3H]spiperone as the radioligand. In kind it is cell-based.
Assay [4] has as its target T3, D(2) dopamine receptor (Rattus norvegicus, UniProt P61169). The assay is described as follows: Binding affinity against Dopamine receptor D2 expressed in CHO-K1 cells, using [3H]U-86170 as the radioligand. The format is cell-based.
The test system of assay [5] is Rattus norvegicus. The assay is described as follows: The Compound was tested in vivo for DOPA accumulation in hemispheres (cortex) against reserpine-pretreated rats; I=inactive at the highest dose tested (3.1). The format is functional, organism-based.
In assay [6] the target is 5-hydroxytryptamine receptor 1B (Homo sapiens, UniProt P28222). The assay can be described thus: Binding affinity against 5-hydroxytryptamine 1D receptor beta expressed in CHO-K1 cells, using [3H]5-HT as the radioligand. In kind it is cell-based.
Assay [7] has as its target 5-hydroxytryptamine receptor 1D (Homo sapiens, UniProt P28221). The assay can be described thus: Binding affinity against 5-hydroxytryptamine 1D receptor alpha expressed in CHO-K1 cells, using [3H]-5-HT as the radioligand. As to conditions: read-out: Ki. The format is cell-based.
Assay [8] has as its system Rattus norvegicus. The assay can be described thus: The Compound was tested in vivo for DOPA accumulation in limbic system against reserpine-pretreated rats; P=significant partial reduction only at the highest dose tested (3.1). In kind it is functional, organism-based.
For assay [9], the system named is Rattus norvegicus. The assay can be described thus: Compound was tested in vivo for 5-HTP accumulation in hemispheres (cortex) against reserpine-pretreated rats; significant partial reduction only at the highest dose tested (40). The format is functional, organism-based.
For assay [10], the target named is T2, D(3) dopamine receptor. The assay can be described thus: Binding affinity against Dopamine receptor D3 from CHO-K1 cells, using [3H]spiperone as the radioligand. As to conditions: read-out: Ki. The format is cell-based.
Assay [11] concerns Rattus norvegicus. The assay can be described thus: The Compound was tested in vivo for DOPA accumulation in hemispheres (cortex) against reserpine-pretreated rats;I= inactive at the highest dose (40). In kind it is functional, organism-based.
Assay [12] concerns Rattus norvegicus. The assay can be described thus: Compound was tested in vivo for DOPA accumulation in corpus striatum against reserpine-pretreated rats;P= significant partial reduction only at the highest dose tested (40). The format is functional, organism-based.
Assay [13] deals with Rattus norvegicus. The assay is described as follows: In vivo for 5-HTP accumulation in limbic system against reserpine-pretreated rats. In kind it is functional.
Assay [14] concerns the target T3, D(2) dopamine receptor. The assay is described as follows: Binding affinity against Dopamine receptor D2 from CHO-K1 cells, using [3H]U-86,170 as the radioligand. The format is cell-based.
For assay [15], the system named is Rattus norvegicus. The assay is described as follows: In vivo for 5-HTP accumulation in corpus striatum against reserpine-pretreated rats. In kind it is functional.
Assay [16] deals with Rattus norvegicus. The assay is described as follows: The Compound was tested in vivo for DOPA accumulation in limbic system against reserpine-pretreated rats; P=significant partial reduction only at the highest dose tested (40). The format is functional, organism-based.
The subject of assay [17] is Rattus norvegicus. The assay is described as follows: The Compound was tested in vivo for DOPA accumulation in hemispheres (cortex) against reserpine-pretreated rats; Iinactive at the highest dose tested (12.5). The format is functional, organism-based.
Assay [18] relates to Rattus norvegicus. The assay can be described thus: In vivo for DOPA accumulation in corpus striatum against reserpine-pretreated rats. In kind it is functional.
In assay [19] the test system is Rattus norvegicus. The assay can be described thus: In vivo for DOPA accumulation in limbic system against reserpine-pretreated rats. In kind it is functional.
Assay [20] concerns Rattus norvegicus. The assay can be described thus: In vivo for 5-HTP accumulation in hemispheres (cortex) against reserpine-pretreated rats. In kind it is functional.
The target in assay [21] is T2, D(3) dopamine receptor. The assay can be described thus: The compound was tested in vitro for binding affinity against cloned mammalian Dopamine receptor D3 expressed in CHO cells by, using [3H]spiperone as radioligand. The format is cell-based.
Assay [22] has as its system Rattus norvegicus. The assay can be described thus: compound was tested in vivo for 5-HTP accumulation in hemispheres (cortex) against reserpine-pretreated rats. The format is functional.
The test system of assay [23] is Rattus norvegicus. The assay is described as follows: compound was tested in vivo for 5-HTP accumulation in limbic system against reserpine-pretreated rats,. The format is functional.
Assay [24] has as its system Rattus norvegicus. The assay can be described thus: The compound was tested in vivo for DOPA accumulation in limbic system against reserpine-pretreated rats; I= inactive at the highest dose tested (50). In kind it is functional, organism-based.
Assay [25] relates to Rattus norvegicus. The assay can be described thus: compound was tested in vivo for 5-HTP accumulation in corpus striatum against reserpine-pretreated rats, activity expressed as ED50. The format is functional.
The test system of assay [26] is Rattus norvegicus. The assay is described as follows: The compound was tested in vivo for DOPA accumulation in hemispheres (cortex) against reserpine-pretreated rats; I= inactive at the highest dose tested (50). The format is functional, organism-based.
Assay [27] deals with Rattus norvegicus. The assay is described as follows: compound was tested in vivo for DOPA accumulation in corpus striatum against reserpine-pretreated rats; I= inactive at the highest dose tested (50). The format is functional, organism-based.
The test system of assay [28] is Rattus norvegicus. The assay is described as follows: The Compound was tested in vivo for DOPA accumulation in hemispheres (cortex) against reserpine-pretreated rats;I= inactive at the highest dose tested (25). In kind it is functional, organism-based.
For assay [29], the system named is Rattus norvegicus. The assay is described as follows: Compound was tested in vivo for 5-HTP accumulation in hemispheres (cortex) against reserpine-pretreated rats; P=significant partial reduction only at the highest dose tested (12.5). The format is functional, organism-based.

As usually defined, the ED50 is the dose at which the effect has come halfway, by size or by number of responders. One may read the Ki as a measure of affinity in units of concentration, obtained from inhibition or displacement.

Molecules are shown by their SMILES. The source made the active and inactive calls. The calls are words filed in the database; no cut-off is given here.

5-hydroxytryptamine receptor 1D, sequence (P28221 whole entry): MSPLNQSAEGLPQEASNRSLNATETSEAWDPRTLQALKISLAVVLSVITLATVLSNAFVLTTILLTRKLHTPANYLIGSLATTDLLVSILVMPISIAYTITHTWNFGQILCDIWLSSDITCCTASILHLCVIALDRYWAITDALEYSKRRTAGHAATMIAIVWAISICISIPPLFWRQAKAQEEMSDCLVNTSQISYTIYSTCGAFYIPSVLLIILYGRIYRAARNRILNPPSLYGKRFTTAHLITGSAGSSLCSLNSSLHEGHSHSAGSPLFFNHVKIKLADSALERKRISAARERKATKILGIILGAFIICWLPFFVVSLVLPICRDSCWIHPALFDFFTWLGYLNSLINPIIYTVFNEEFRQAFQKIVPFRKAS
5-hydroxytryptamine receptor 1B, sequence (P28222 whole entry): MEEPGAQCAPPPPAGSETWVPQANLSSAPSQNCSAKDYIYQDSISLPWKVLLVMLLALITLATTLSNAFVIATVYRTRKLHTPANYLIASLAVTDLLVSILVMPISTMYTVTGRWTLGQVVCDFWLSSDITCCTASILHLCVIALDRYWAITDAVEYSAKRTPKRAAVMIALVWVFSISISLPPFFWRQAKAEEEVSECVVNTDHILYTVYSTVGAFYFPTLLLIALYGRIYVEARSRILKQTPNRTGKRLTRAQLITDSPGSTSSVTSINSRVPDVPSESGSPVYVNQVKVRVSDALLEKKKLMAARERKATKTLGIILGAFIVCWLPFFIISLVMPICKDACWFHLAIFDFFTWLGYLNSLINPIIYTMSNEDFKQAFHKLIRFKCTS
T3 sequence (P61169 whole entry): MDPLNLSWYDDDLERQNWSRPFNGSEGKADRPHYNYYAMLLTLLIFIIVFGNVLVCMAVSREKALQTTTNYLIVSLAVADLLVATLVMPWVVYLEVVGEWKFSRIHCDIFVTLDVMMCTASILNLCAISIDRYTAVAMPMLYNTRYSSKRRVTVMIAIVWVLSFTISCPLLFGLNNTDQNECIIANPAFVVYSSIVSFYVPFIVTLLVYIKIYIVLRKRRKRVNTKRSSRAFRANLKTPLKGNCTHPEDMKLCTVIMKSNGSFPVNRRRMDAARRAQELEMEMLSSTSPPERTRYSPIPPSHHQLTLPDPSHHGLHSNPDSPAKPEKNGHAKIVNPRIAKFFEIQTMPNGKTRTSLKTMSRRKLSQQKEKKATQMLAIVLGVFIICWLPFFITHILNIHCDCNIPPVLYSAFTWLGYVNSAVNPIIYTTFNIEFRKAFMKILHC
T2 sequence (P19020 whole entry): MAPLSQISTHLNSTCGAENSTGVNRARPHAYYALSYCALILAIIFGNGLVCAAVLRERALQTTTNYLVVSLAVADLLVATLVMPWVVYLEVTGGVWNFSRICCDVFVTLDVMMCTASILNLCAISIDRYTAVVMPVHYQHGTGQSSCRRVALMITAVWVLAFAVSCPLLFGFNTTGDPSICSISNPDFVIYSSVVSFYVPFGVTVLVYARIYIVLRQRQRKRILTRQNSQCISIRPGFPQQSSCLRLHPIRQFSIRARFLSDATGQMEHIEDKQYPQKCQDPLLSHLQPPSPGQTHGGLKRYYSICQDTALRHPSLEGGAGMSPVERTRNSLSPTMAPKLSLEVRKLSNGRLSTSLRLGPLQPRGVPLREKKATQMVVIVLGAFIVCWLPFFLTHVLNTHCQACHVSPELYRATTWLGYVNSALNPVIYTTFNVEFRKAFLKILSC

For the molecule `CCCN(CCC)[C@@H]1CCc2ccc3[nH]cc(C#N)c3c2C1`, the ED50 result in the assay on Rattus norvegicus [1] and in the assay on Rattus norvegicus [5] was “inactive” in each case. Besides, the Ki in assay [2] is 0.8 nM; on D(3) dopamine receptor [3] it was 45 nM; at D(2) dopamine receptor [4], 22 nM; in [6] (read-out: Ki), 26 nM; in assay [7] it was 6.7 nM. In the assay with Rattus norvegicus [8], the ED50 entry was “Weak activity”.
Turning to `CCCN(CCC)C1CCc2cc(F)c3[nH]cc(C(=O)CC)c3c2C1` (stereo unspecified), the Ki in assay [2] was 7.1 nM; on D(3) dopamine receptor [10] it was 542 nM; in assay [6] (cho-k1), “Not Active”; at D(2) dopamine receptor [14], 377 nM; in [7], 36 nM. Also, the ED50 entry with Rattus norvegicus [9] was “Active”. The ED50 entry in the assay with Rattus norvegicus [11] is “inactive”. For the same molecule, the ED50 result in the assay with Rattus norvegicus [12] is “Weak activity”; with Rattus norvegicus [13] it was 6.34 µmol/kg; in the assay with Rattus norvegicus [15], 3.94 µmol/kg; in the assay with Rattus norvegicus [16], “Weak activity”.
As to `CCCN(CCC)C1CCc2ccc3[nH]ccc3c2C1` (stereo unspecified), the ED50 entry in the assay with Rattus norvegicus [17] is “inactive”. The ED50 with Rattus norvegicus [18] is 0.3 µmol/kg; in the assay on Rattus norvegicus [19], 0.15 µmol/kg; with Rattus norvegicus [20], 0.17 µmol/kg; with Rattus norvegicus [13], 0.096 µmol/kg; with Rattus norvegicus [15] it was 0.076 µmol/kg. Besides, the inhibition constant (Ki) on D(3) dopamine receptor [3] is 37 nM; at D(2) dopamine receptor [4], 15 nM; in assay [6] (read-out: Ki) it was 349 nM; in assay [7], 40 nM.
For `CCCNC1CCc2cc(F)ccc2C1` (stereo unspecified), the Ki in assay [2] was found to be 134 nM; at D(3) dopamine receptor [21], 156 nM; at D(2) dopamine receptor [4], 162 nM; in assay [6] (read-out: Ki), 1510 nM; in assay [7], 585 nM. The ED50 in the assay with Rattus norvegicus [22] amounted to 12.8 µmol/kg; with Rattus norvegicus [23] it was 15.5 µmol/kg; in the assay with Rattus norvegicus [25], 9.53 µmol/kg. The ED50 result in the assay with Rattus norvegicus [24], in the assay on Rattus norvegicus [26] and in the assay on Rattus norvegicus [27] was “inactive” throughout.
Regarding `CCCN(CCC)C1CCc2ccc3[nH]cc(SC)c3c2C1` (stereo unspecified), the Ki in assay [2] was 13 nM; on D(3) dopamine receptor [3], 55 nM; at D(2) dopamine receptor [4], 33 nM; in assay [6] (cho-k1), “Not Active”; in assay [7], 18 nM. Further, the ED50 entry in the assay on Rattus norvegicus [28] is “inactive”. The ED50 in the assay with Rattus norvegicus [18] is 5.23 µmol/kg; in the assay with Rattus norvegicus [19], 7.11 µmol/kg; in the assay on Rattus norvegicus [29] it was “Weak activity”; with Rattus norvegicus [13] it was 10 µmol/kg; in the assay with Rattus norvegicus [15] it was 10.2 µmol/kg.

For the origin of these results see ChEMBL document CHEMBL1128401, “Structure-activity relationships in the 8-amino-6,7,8,9-tetrahydro-3H-benz[e]indole ring system. 1. Effects of substituents in the aromatic system on serotonin and dopamine receptor subtypes” (J Med Chem, 1995).
